In patent US20260297060A1, “COMPOUNDS FOR THE DEGRADATION OF MUTANT BRAF” (C4 THERAPEUTICS, INC., priority 2023, published 2026):

Key:
A375-NRAS^Q61K cells = test: CTGlo Cell Viability Assay, A375-NRAS^Q61K (A375.11) cells, 96 hours; type: cell-based, human; conditions: A375.11 (A375-NRAS^Q61K) cells; for Emax / CTGlo A375.11 96 hours Emax: lowest % viability achieved
Outline: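 Viability as CellTiter-Glo ATP luminescence after 96 h compound exposure at 37 °C; A375.11 (BRAF V600E/NRAS Q61K) cells at 250/well, top final concentration 10 μM in half-log steps. Signal was background-corrected and set relative to DMSO controls. A 4-parameter logistic fit gave GI50 (50% crossing) and Emax.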

[1] = biological target: T1, human bile salt export pump (BSEP) efflux transporter (Homo sapiens, UniProt O95342); test: BSEP Vesicular Transport Inhibition Assay (IC50 determination); type: biochemical; conditions: human BSEP (HEK293) vesicles, taurocholate 0.2 μM, 4 mM Mg-ATP, 10 concentrations, 1 replicate
T1 construct: purchased SOLVO Biotechnology Charles River Laboratories, Szeged, Hungary; host or cells: HEK293 (inside out membrane vesicles)
T1 sequence (O95342 whole entry): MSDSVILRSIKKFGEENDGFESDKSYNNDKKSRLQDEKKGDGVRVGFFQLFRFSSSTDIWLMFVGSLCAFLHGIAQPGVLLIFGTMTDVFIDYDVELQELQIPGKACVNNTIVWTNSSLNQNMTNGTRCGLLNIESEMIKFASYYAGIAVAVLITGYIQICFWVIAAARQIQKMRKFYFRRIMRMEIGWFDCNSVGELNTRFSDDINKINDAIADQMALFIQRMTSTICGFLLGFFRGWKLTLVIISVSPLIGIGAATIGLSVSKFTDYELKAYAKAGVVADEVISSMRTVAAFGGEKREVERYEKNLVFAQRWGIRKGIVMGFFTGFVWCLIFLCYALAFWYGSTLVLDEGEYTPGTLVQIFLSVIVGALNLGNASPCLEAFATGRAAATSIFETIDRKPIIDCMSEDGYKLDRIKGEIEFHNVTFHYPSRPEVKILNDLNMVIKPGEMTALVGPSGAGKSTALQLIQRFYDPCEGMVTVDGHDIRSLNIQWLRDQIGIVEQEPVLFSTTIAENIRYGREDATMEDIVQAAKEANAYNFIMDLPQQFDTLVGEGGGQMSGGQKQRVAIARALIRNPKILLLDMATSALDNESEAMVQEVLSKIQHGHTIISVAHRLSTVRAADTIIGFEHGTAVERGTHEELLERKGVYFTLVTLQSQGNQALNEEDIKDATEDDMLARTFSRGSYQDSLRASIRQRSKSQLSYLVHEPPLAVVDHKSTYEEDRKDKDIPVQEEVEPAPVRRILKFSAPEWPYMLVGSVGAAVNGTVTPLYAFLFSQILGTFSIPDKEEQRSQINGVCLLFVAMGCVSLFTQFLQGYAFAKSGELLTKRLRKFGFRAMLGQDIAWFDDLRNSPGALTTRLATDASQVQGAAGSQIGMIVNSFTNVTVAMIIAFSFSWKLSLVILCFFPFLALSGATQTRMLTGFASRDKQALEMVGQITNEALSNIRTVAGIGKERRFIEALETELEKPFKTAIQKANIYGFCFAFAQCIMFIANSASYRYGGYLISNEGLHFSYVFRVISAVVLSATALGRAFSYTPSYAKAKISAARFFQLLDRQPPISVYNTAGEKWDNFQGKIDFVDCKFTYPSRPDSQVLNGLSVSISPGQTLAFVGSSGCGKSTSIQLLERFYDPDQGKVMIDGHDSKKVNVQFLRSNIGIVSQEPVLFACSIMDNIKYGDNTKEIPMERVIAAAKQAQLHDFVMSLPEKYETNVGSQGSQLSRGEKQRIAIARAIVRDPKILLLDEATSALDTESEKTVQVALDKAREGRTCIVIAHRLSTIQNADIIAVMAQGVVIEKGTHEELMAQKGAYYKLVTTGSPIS
Procedure: The vesicular transport (VT) assays were performed using inside out membrane vesicles derived from HEK293 cells expressing the specified human bile salt export pump (BSEP) efflux transporter. The membrane vesicles were procured from SOLVO Biotechnology Charles River Laboratories, Szeged, Hungary.
The principle of the assay relies on measuring the accumulation of substrate into inside out vesicles containing the efflux transporter. By utilizing inside out vesicles, the ATP-dependent transport of substrate is directed into the vesicular lumen, where low permeability compounds are then essentially trapped.
For the IC50 screen inhibition assay, 10 concentrations of each compound were tested in the presence of ATP (active transport) in 1 replicate.
The solvent control (DMSO) was tested in the presence of ATP (active transport) and in the presence of AMP (background) in 8 replicates.
Vesicular transport inhibition assays were performed using the specific parameters for each transporter inhibition assay described in Table 53.
Table 54 specifies treatment groups and concentration of compounds, that were examined in the vesicular transport inhibition assay. Detailed data of IC50 screen inhibition assay are shown in Table 55 and detailed data of 1 concentration inhibition assay are shown in Table 56.
The vesicular transport inhibition assay was performed with 4 mM Mg-ATP. For the IC50 screen inhibition assay, 10 concentrations of each compound were tested in the presence of ATP in 1 replicate. For the 1 concentration inhibition assay, 1 concentration of each compound was tested in the presence of ATP (active transport) in 2 replicates. The solvent control (DMSO) was tested in the presence of 4 mM Mg-ATP (active transport) and in the presence of 4 mM AMP (background) in 8 replicates.
The BSEP membrane vesicle suspension was mixed with the ice-cold transport buffer, then the taurocholate probe substrate solution was added (Reaction mixture, 50 μL per well). The compounds were added to the reaction mixture at 1.5-times the final assay concentration. […].
Reaction mixtures and the start reagent (Mg-ATP or AMP in transport buffer) were pre-warmed separately for 15 minutes to reach the incubation temperature of 37° C. […]
The reaction was initiated by the addition of the start reagent (25 μL) to the reaction mixture (diluting the reaction mixture to the final concentration). […] After the 5-minute incubation at 37° C., the reaction was stopped by the addition of 250 μL ice-cold washing mix to each well. […]
The samples were then be transferred to a filter plate and washed with 200 μL cold washing mix5-times to remove any free compounds or taurocholate probe substrate. The amount of taurocholate probe substrate inside the filtered vesicles were determined by liquid scintillation counting. […]

GI50 (A375-NRAS^Q61K cells; Homo sapiens, 96 h) [nM] | GI50 (A375-NRAS^Q61K cells) [nM] | Structure (SMILES) | Emax (A375-NRAS^Q61K cells; Homo sapiens, 96 h) [%] | BSEP Inhibition/IC50 ([1]; in nM) | CTGlo A375.11 96 hours Emax (A375-NRAS^Q61K cells) | BSEP Inhibition/IC50 [1] [nM]
< 1000 | – | CCN(C)S(=O)(=O)Nc1ccc(F)c(Oc2ccc3ncn([C@H]4CCC5(CCN(C6CCC(c7cc8c(cc7F)c(N7CCC(=O)NC7=O)nn8C)CC6)CC5)C4)c(=O)c3c2)c1C#N (single isomer, unassigned) [Compound 33] | < 50 | 10060 | – | –
< 1000 | – | CCN(C)S(=O)(=O)Nc1ccc(F)c(Oc2ccc3ncn([C@H]4COC5(CCC(N6CCC(c7cc8c(cc7F)c(N7CCC(=O)NC7=O)nn8C)C(F)(F)C6)CC5)C4)c(=O)c3c2)c1C#N (single isomer, unassigned) [Compound 38] | < 50 | 963.6 | – | –
– | < 1000 | CCN(C)S(=O)(=O)Nc1ccc(F)c(Oc2ccc3ncn([C@H]4COC5(CCC(N6CCC(c7cc8c(cc7F)c(N7CCC(=O)NC7=O)nn8C)C(F)(F)C6)CC5)C4)c(=O)c3c2)c1C#N (single isomer, unassigned) [Compound 39] | – | – | *** (<=50%) | 1560
< 1000 | – | CCN(C)S(=O)(=O)Nc1ccc(F)c(Oc2ccc3ncc([C@@H]4COC5(CCN(C6CCC(c7cc8c(cc7F)c(N7CCC(=O)NC7=O)nn8C)CC6)CC5)C4)nc3c2)c1C#N (single isomer, unassigned) [Compound 54] | < 50 | 11010 | – | –
– | < 1000 | CCN(C)S(=O)(=O)Nc1ccc(F)c(Oc2ccc3ncc([C@@H]4COC5(CCN(C6CCC(c7ccc(NC8CCC(=O)NC8=O)cc7F)CC6)CC5)C4)nc3c2)c1C#N (single isomer, unassigned) [Compound 60] | < 50 | – | – | 7880
< 1000 | – | CCN(C)S(=O)(=O)Nc1ccc(F)c(Oc2ccc3ncn([C@H]4COC5(CCN(C6CC(c7cc8c(cc7F)c(N7CCC(=O)NC7=O)nn8C)C6)CC5)C4)c(=O)c3c2)c1C#N (single isomer, unassigned) [Compound 70] | < 50 | – | – | 2080
< 1000 | – | CCN(C)S(=O)(=O)Nc1ccc(F)c(Oc2ccc3ncn(C4CC5(CCN(C6CCC(c7cc8c(cc7F)c(N7CCC(=O)NC7=O)nn8C)CC6F)CC5)C4)c(=O)c3c2)c1C#N (single isomer, unassigned) [Compound 83, 6-[2-cyano-3-[[ethyl(methyl)sulfamoyl]amino]-6-fluoro-phenoxy]-3-[7-[4-[3-(2,4-dioxohexahydropyrimidin-1-yl)-5-fluoro-1-methyl-indazol-6-yl]-2-fluoro-cyclohexyl]-7-azaspiro[3.5]nonan-2-yl]-4-oxo-quinazoline] | < 50 | 14100 | – | –
– | < 1000 | CCN(C)S(=O)(=O)Nc1ccc(F)c(Oc2ccc3ncn(C4CC5(CCN(C6CCC(c7cc8c(cc7F)c(N7CCC(=O)NC7=O)nn8C)CC6F)CC5)C4)c(=O)c3c2)c1C#N (single isomer, unassigned) [Compound 85] | – | – | *** (<=50%) | 9810
– | < 1000 | CCN(C)S(=O)(=O)Nc1ccc(F)c(Oc2ccc3ncn(C4CC5(CCN(C6CCC(c7cc8c(cc7F)c(N7CCC(=O)NC7=O)nn8C)CC6F)CC5)C4)c(=O)c3c2)c1C#N (single isomer, unassigned) [Compound 86] | – | – | *** (<=50%) | 9880
< 1000 | – | Cn1nc(N2CCC(=O)NC2=O)c2cc(F)c(C3CCC(N4CCC5(CC4)CC(n4cnc6ccc(Oc7c(F)ccc(NS(=O)(=O)C8CCCC8)c7C#N)cc6c4=O)C5)CC3)cc21 (single isomer, unassigned) [Compound 93, N-[2-cyano-3-[3-[7-[4-[3-(2,4-dioxohexahydropyrimidin-1-yl)-5-fluoro-1-methyl-indazol-6-yl]cyclohexyl]-7-azaspiro[3.5]nonan-2-yl]-4-oxo-quinazolin-6-yl]oxy-4-fluoro-phenyl]cyclopentanesulfonamide] | < 50 | >40000 | – | –
1000 to 10000 | – | CCN(C)S(=O)(=O)Nc1ccc(F)c(Oc2ccc3ncc(OCC4CCN(C5CCC(c6cc7c(cc6F)c(N6CCC(=O)NC6=O)nn7C)CC5)CC4)nc3c2)c1C#N (single isomer, unassigned) [Compound 118, 7-[2-cyano-3-[[ethyl(methyl)sulfamoyl]amino]-6-fluoro-phenoxy]-2-[[1-[4-[3-(2,4-dioxohexahydropyrimidin-1-yl)-5-fluoro-1-methyl-indazol-6-yl]cyclohexyl]-4-piperidyl]methoxy]quinoxaline] | 50 to 90 | >40000 | – | –
– | 1000 to 10000 | CN(CCO)S(=O)(=O)Nc1ccc(F)c(Oc2ccc3ncn(C4CC5(CCN(C6CCC(c7cc8c(cc7F)c(N7CCC(=O)NC7=O)nn8C)CC6F)CC5)C4)c(=O)c3c2)c1C#N (single isomer, unassigned) [Compound 145, 6-[2-cyano-6-fluoro-3-[[2-hydroxyethyl(methyl)sulfamoyl]amino]phenoxy]-3-[7-[4-[3-(2,4-dioxohexahydropyrimidin-1-yl)-5-fluoro-1-methyl-indazol-6-yl]-2-fluoro-cyclohexyl]-7-azaspiro[3.5]nonan-2-yl]-4-oxo-quinazoline] | 50 to 90 | 21630 | – | –
< 1000 | – | CCN(C)S(=O)(=O)Nc1ccc(F)c(Oc2ccc3ncc([C@H]4COC5(CCN(C6CCC(c7cc8c(cc7F)c(N7CCC(=O)NC7=O)nn8C)CC6F)CC5)C4)nc3c2)c1C#N (single isomer, unassigned) [Compound 160] | 50 to 90 | – | – | 1580
< 1000 | – | CCN(C)S(=O)(=O)Nc1ccc(F)c(Oc2ccc3ncc(C4CC5(CCN(C6CCC(c7cc8c(cc7F)c(N7CCC(=O)NC7=O)nn8C)CC6)CC5)C4)nc3c2)c1C#N (single isomer, unassigned) [Compound 180, 7-[2-cyano-3-[[ethyl(methyl)sulfamoyl]amino]-6-fluoro-phenoxy]-2-[7-[4-[3-(2,4-dioxohexahydropyrimidin-1-yl)-5-fluoro-1-methyl-indazol-6-yl]cyclohexyl]-7-azaspiro[3.5]nonan-2-yl]quinoxaline] | < 50 | 12180 | – | –
– | < 1000 | CCN(C)S(=O)(=O)Nc1ccc(F)c(Oc2ccc3ncn(C4CC5(C4)CN(C4CCC(c6cc7c(cc6F)c(N6CCC(=O)NC6=O)nn7C)CC4)C5)c(=O)c3c2)c1C#N (single isomer, unassigned) [Compound 204, 6-[2-cyano-3-[[ethyl(methyl)sulfamoyl]amino]-6-fluoro-phenoxy]-3-[2-[4-[3-(2,4-dioxohexahydropyrimidin-1-yl)-5-fluoro-1-methyl-indazol-6-yl]cyclohexyl]-2-azaspiro[3.3]heptan-6-yl]-4-oxo-quinazoline] | – | >40000 | ** (<90% and >50%) | –
– | < 1000 | CCN(C)S(=O)(=O)Nc1ccc(F)c(Oc2ccc3ncc(OC4CC5(CCN(C6CCC(c7cc8c(cc7F)c(N7CCC(=O)NC7=O)nn8C)CC6)CC5)C4)nc3c2)c1C#N (single isomer, unassigned) [Compound 218, 7-[2-cyano-3-[[ethyl(methyl)sulfamoyl]amino]-6-fluoro-phenoxy]-2-[[7-[4-[3-(2,4-dioxohexahydropyrimidin-1-yl)-5-fluoro-1-methyl-indazol-6-yl]cyclohexyl]-7-azaspiro[3.5]nonan-2-yl]oxy]quinoxaline] | 50 to 90 | 13210 | – | –
